From patent US20070249559A1, “Hydrating Composition” (priority 2004, published 2007)

Tests used:
[1] = Body mass and body water compartments (bioimpedance) before and after 7-day supplementation; format: in vivo, human; conditions: for Change in extracellular water (ECW) post- vs pre-supplementation / Change in intracellular water (ICW) post- vs pre-supplementation / Change in total body water (TBW) post- vs pre-supplementation: bioimpedance; for Change in extracellular water (ECW) post- vs pre-supplementation / Change in intracellular water (ICW) post- vs pre-supplementation / Change in total body water (TBW) post- vs pre-supplementation / Change in body mass (BM) post- vs pre-supplementation: supplementation week; for Change in body mass (BM) post- vs pre-supplementation: well-trained cyclists, final supplement 5 hours prior
Procedure: (§1) The experimental design and protocol are complicated and is best understood by reference to FIGS. 1 and 2. The study consisted of two supplementation regimens, each lasting 7 days and encompassing four cycle performance trials consisting of 40 min constant-load exercise at 63% WRmax followed by a 16.1 km (10 mile) time trial. Prior to the first of these experimental trials, familiarisation trials were completed until the variability of two consecutive trials was within 5%. Following this familiarisation period, subjects were matched for body mass (BM) and were randomised in a double blind fashion to either a Cr or a placebo (Pl) group. Subjects performed an exercise trial pre- and post-supplementation in both supplementation weeks. The first test was conducted at least 48 hours after each subject's final familiarisation trial. Each supplementation period started on the day after the first test and finished on the day of the second test.
(§2) Cr supplementation consisted of 22.8 g·d^−1 of Cr.H2O (equivalent to 10 g Cr×2 daily) and 140 g of glucose polymer (70 g×2 daily) made up in 2 L of warm to hot water for 6 days. […] Each supplementation was made freshly prior to consumption in order to prevent any degradation of Cr to creatinine (Crn). The Pl supplement consisted of 170 g·d^−1 of glucose polymer (85 g×2 daily). During the first and third week of the experimental regimen, subjects in both groups received either 1 g glycerol (Gly) per·kg BM or an equivalent amount of Pl (sucrose solution) diluted in each supplement. In both post-supplementation trials (days 8 and 22) subjects consumed the appropriate supplement 5 hours prior to exercise. […] All supplements had similar taste, texture and appearance and were placed in generic water bottles to ensure double blind administration. On each of the experimental test days (i.e. days 1, 8, 15, 22) subjects ingested 500 ml of water 3 hours prior to exercise and a further 500 ml of water 1 hour prior to exercise to ensure subjects were adequately hydrated prior to all exercise trials (American College of Sports Medicine, 2000).
(§3) Procedures. Subjects reported to the laboratory on the day of testing following a 3 hr fast and having refrained from alcohol, caffeine and strenuous exercise the day before. Upon arrival at the laboratory, height and nude BM were measured and body water compartments were estimated using a Bodystat Multiscan 5000 Bioimpedance analyser (Bodystat Ltd, Isle of Man) (Van Loan, 1990). This method allows TBW and ECW to be estimated; from these measurements ICW can also be deduced. The bioimpedance measurements were taken while the subjects lay comfortably in a supine position on a non-conductive surface with their arms and legs slightly abducted. Following the bioimpedance measurement, a flexible rectal thermistor was inserted 10 cm beyond the anal sphincter to measure rectal temperature (Tre), an index of core temperature (Tc) and a heart rate (HR) monitor (Polar Sports Tester, Polar Electro Oy, Kempele, Finland) was attached. The subject's right hand and forearm were immersed in water at 42-44° C. for 15 min in order to allow for arterialisation of the venous blood (Forster at al. 1972). Following this, a 21 G cannula was introduced into a superficial vein on the dorsal surface of the heated hand. The subject was transferred to the climatic chamber (ambient temperature 30±1° C. with a relative humidity of 70±2% and air velocity of approximately 1.8 m·sec^−1) and seated on the cycle ergometer for 5 min. During this period thermistors (C8600 10 channel microprocessor, Comark, Hertfordshire, UK) were attached to the subject's chest, tricep, thigh and calf for the determination of weighted mean skin temperature (Tskin) (Ramanthan, 1964). The subject remained seated on the cycle ergometer for a further 1 min while resting HR, Tre, Tskin were recorded and a blood sample (10 ml) obtained. The venous cannula was kept patent by a 10 ml infusion of isotonic saline between samples. […]

[2] = Cycle exercise in the heat: 40 min constant load at 63% WRmax followed by 16.1 km time trial; format: in vivo, human; conditions: for Core temperature (Tc, rectal) during exercise post- vs pre-supplementation / Heart rate (HR) during exercise post- vs pre-supplementation: 30 C, 70% relative humidity; for RPE for breathlessness post- vs pre-supplementation / RPE for perceived leg fatigue post- vs pre-supplementation: Borg category scale; for Change in plasma volume (delta PV) during exercise post- vs pre-supplementation: calculated from Hb and PCV
Procedure: as §1, §2, §3

[3] = Side effects of the supplementation protocol; format: in vivo, human; conditions: 18 subjects
Text: as §2
Side effects. […] 3 subjects from each group correctly identified the subject group and 2 subjects correctly identified the Gly supplementation week, while, all other subjects were unsure of the treatment they received.

[4] = consumed with a substantial fluid intake; by reducing urinary volume; cited from earlier work
[5] = bioimpedance estimate after supplementation

**Q.** With `CN(CC(=O)O)C(=N)N` [Cr, methyl guanidine acetic acid] as the compound, how does the “Increase in plasma volume (PV)” value ([1]; assuming 7.5% of the increase in TBW is plasma) read?
**A.** approximately 51 ml

**Q.** What about the “Increase in TBW (estimated, on average)” value [1, 5] of the same compound?
**A.** 680 mL

**Q.** What about the “Part of TBW increase accounted for by increase in ICW” value [1, 5] of the same compound?
**A.** 500 mL

**Q.** And the “Change in extracellular water (ECW) post- vs pre-supplementation” value [1]?
**A.** increased significantly

**Q.** What about the “Change in intracellular water (ICW) post- vs pre-supplementation” value [1] of the same compound?
**A.** increased significantly

**Q.** What about the “Change in total body water (TBW) post- vs pre-supplementation” value [1] of the same compound?
**A.** increased significantly

**Q.** What about the “Change in body mass (BM) post- vs pre-supplementation” value [1] of the same compound?
**A.** increased significantly

**Q.** And the “Core temperature (Tc, rectal) during exercise post- vs pre-supplementation” value [2]?
**A.** significantly lower

**Q.** And the “Heart rate (HR) during exercise post- vs pre-supplementation” value [2]?
**A.** significantly lower

**Q.** And the “RPE for breathlessness post- vs pre-supplementation” value [2]?
**A.** Lower

**Q.** What about the “RPE for perceived leg fatigue post- vs pre-supplementation” value [2] of the same compound?
**A.** Significantly lower

**Q.** What about the “Change in plasma volume (delta PV) during exercise post- vs pre-supplementation” value [2] of the same compound?
**A.** lower

**Q.** And the “16.1 km time trial performance” value ([2]; post- vs pre-supplementation)?
**A.** no effect

**Q.** Which Side effects reported [3] does the source give for `OCC(O)CO` [Gly, glycerol] here?
**A.** only one report of gastrointestinal distress

**Q.** What about the “Fluid expansion or retention above a fluid bolus alone” value [4] of the same compound?
**A.** ~600 mL

**Q.** What about the “Increase in TBW (estimated, on average)” value [1, 5] of the same compound?
**A.** 600 mL

**Q.** And the “Part of TBW increase accounted for by increase in ECW” value [1, 5]?
**A.** 400 mL

**Q.** What about the “Change in extracellular water (ECW) post- vs pre-supplementation” value [1] of the same compound?
**A.** increased significantly

**Q.** And the “Change in intracellular water (ICW) post- vs pre-supplementation” value [1]?
**A.** no significant increase

**Q.** And the “Change in total body water (TBW) post- vs pre-supplementation” value [1]?
**A.** increased significantly

**Q.** And the “Change in body mass (BM) post- vs pre-supplementation” value [1]?
**A.** increased significantly

**Q.** And the “Core temperature (Tc, rectal) during exercise post- vs pre-supplementation” value [2]?
**A.** not significantly different

**Q.** And the “Heart rate (HR) during exercise post- vs pre-supplementation” value [2]?
**A.** significantly lower

**Q.** And the “RPE for breathlessness post- vs pre-supplementation” value [2]?
**A.** no such effect

**Q.** And the “RPE for perceived leg fatigue post- vs pre-supplementation” value [2]?
**A.** no such effect

**Q.** And the “Change in plasma volume (delta PV) during exercise post- vs pre-supplementation” value [2]?
**A.** not significantly different
